“And” between values parts separate entries of the source, which are not always exact repeats. Equal entries are not always repeated.
Experiments:
[1] = target: T1, OEP21 wt (Pisum sativum, UniProt Q9SM57); experiment: NMR titrations (2D-[15N,1H]-TROSY) of OEP21 with metabolites; assay type: binding, garden pea
T1 construct: made in house

[2] = target: OmpX (Escherichia coli, UniProt P0A917); experiment: 2D NMR control with OmpX in LDAO micelles; design: species or system bacterial; details: up to 5 mM GAP; control for nonspecific binding
Method: (a) (left) 2D-[^15N,^1H]-TROSY NMR spectra of 400 µM ^2H,^15N-labeled OmpX in LDAO micelles in 20 mM sodium phosphate, pH6.0, 50 mM NaCl, 0.5 mM EDTA and the indicated concentrations of D-GAP at 30 °C and 1.2 GHz magnetic field. (right) 2D-projections along the ^1H dimension of the 2D-spectra shown on (left). […] (right) Relative NMR peak intensities derived from the data in (left) and (middle). Buffer: 10 mM Na-phosphate pH7.0, 20 mM NaCl, 7% (v/v) D2O. […] (right) 150 mM MgCl2 was titrated into 15 mM potassium phosphate (Pi). Buffer conditions for all experiments were: 10 mM HEPES pH7.0, 20 mM NaCl.

[3] = target: T2, OEP21 (Pisum sativum, UniProt Q9SM57); experiment: CD-detected thermal melting of OEP21 in presence of metabolites; assay type: binding, garden pea; design: made in house; details: for raw CD / rel CD: 500 uM; for Melting point: ED Fig. 4a
[4] = target: T2, OEP21; details: Cu^2+ oxidation then BS^3; 5 mM metabolite

SMILES: O=C[C@H](O)COP(=O)(O)O [GAP, D-glyceraldehyde-3-phosphate]
- Kd ([1]; KD GAP - Loop5, Loop5, individual KDs): 2700 µM and 4360 µM and 2480 µM
- Kd ([1]; KD GAP - Loop5, Mean, Loop5, mean): 3180 µM
- Kd ([1]; KD, NMR, Fig. 3b): ~150 µM
- Kd ([1]; KDs GAP+Mg, Mean, with Mg, mean): 709 µM
- Kd ([1]; KDs GAP+Mg, with Mg, individual KDs): 310 µM and 690 µM and 450 µM and 960 µM and 920 µM and 1170 µM and 470 µM and 980 µM and 750 µM and 710 µM and 670 µM
- Kd ([1]; KDs OEP21wt + GAP, Mean, OEP21wt, mean, unit inferred): 152 µM
- Kd ([1]; KDs OEP21wt + GAP, OEP21wt, individual KDs, unit inferred): 154 µM and 180 µM and 186 µM and 146 µM and 177 µM and 143 µM and 138 µM and 137 µM and 127 µM and 149 µM
- effect of Mg^2+ on binding affinity (in words) ([1]; NMR, Fig. 3h, addition of Mg^2+): decreased the binding affinity to a similar extent
- Kd ([1]; affinity of residues in L5, NMR, Fig. 3h): ~3000 µM
- fold increase in Kd ([1]; individual determinations KD1-KD12, relative to ATP pH7): 18.8725 and 22.0588 and 22.7941 and 17.8922 and 21.6912 and 17.5245 and 16.9118 and 16.7892 and 15.5637 and 18.2598
- fold increase in Kd, mean values ([1]; mean, relative to ATP pH7): 18.7
- effect on 2D-NMR spectra of OmpX (in words) [2]: did not observe any effect
- raw CD ([3]; 22.5 °C): -23.3707
- rel CD ([3]; 22.5 °C): 0.97
- raw CD ([3]; 23 °C): -23.5919
- rel CD ([3]; 23 °C): 0.9806
- raw CD ([3]; 23.5 °C): -24.399
- rel CD ([3]; 23.5 °C): 1.019
- raw CD ([3]; 24 °C): -24.3596
- rel CD ([3]; 24 °C): 1.017
- raw CD ([3]; 25 °C): -24.3798
- rel CD ([3]; 25 °C): 1.018
- raw CD ([3]; 26 °C): -24.239
- rel CD ([3]; 26 °C): 1.011
- raw CD ([3]; 27 °C): -24.36
- rel CD ([3]; 27 °C): 1.017
- raw CD ([3]; 28 °C): -24.2279
- rel CD ([3]; 28 °C): 1.011
- raw CD ([3]; 28.5 °C): -24.3095
- rel CD ([3]; 28.5 °C): 1.015
- raw CD ([3]; 29 °C): -23.5401
- rel CD ([3]; 29 °C): 0.9781
- raw CD ([3]; 30 °C): -23.385
- rel CD ([3]; 30 °C): 0.9707
- raw CD ([3]; 31 °C): -24.0555
- rel CD ([3]; 31 °C): 1.003
- raw CD ([3]; 32 °C): -24.3068
- rel CD ([3]; 32 °C): 1.015
- raw CD ([3]; 33 °C): -24.4089
- rel CD ([3]; 33 °C): 1.019
- raw CD ([3]; 34 °C): -23.805
- rel CD ([3]; 34 °C): 0.9907
- raw CD ([3]; 35 °C): -24.5097
- rel CD ([3]; 35 °C): 1.024
- raw CD ([3]; 36 °C): -24.0481
- rel CD ([3]; 36 °C): 1.002
- raw CD ([3]; 37 °C): -23.8199
- rel CD ([3]; 37 °C): 0.9914
- raw CD ([3]; 38 °C): -23.8252
- rel CD ([3]; 38 °C): 0.9917
- raw CD ([3]; 39 °C): -23.7051
- rel CD ([3]; 39 °C): 0.986
- raw CD ([3]; 68 °C): -6.585
- rel CD ([3]; 68 °C): 0.1707
- raw CD ([3]; 68.5 °C): -6.193
- rel CD ([3]; 68.5 °C): 0.1521
- raw CD ([3]; 69 °C): -6.288
- rel CD ([3]; 69 °C): 0.1566
- raw CD ([3]; 70 °C): -5.958
- rel CD ([3]; 70 °C): 0.1409
- raw CD ([3]; 70.5 °C): -5.84
- rel CD ([3]; 70.5 °C): 0.1352
- raw CD ([3]; 71 °C): -5.586
- rel CD ([3]; 71 °C): 0.1232
- raw CD ([3]; 71.5 °C): -5.682
- rel CD ([3]; 71.5 °C): 0.1277
- raw CD ([3]; 72 °C): -5.192
- rel CD ([3]; 72 °C): 0.1044
- raw CD ([3]; 73 °C): -5.167
- rel CD ([3]; 73 °C): 0.1032
- raw CD ([3]; 74 °C): -4.493
- rel CD ([3]; 74 °C): 0.07111
- raw CD ([3]; 74.5 °C): -4.638
- rel CD ([3]; 74.5 °C): 0.078
- raw CD ([3]; 75 °C): -4.942
- rel CD ([3]; 75 °C): 0.09249
- raw CD ([3]; 75.5 °C): -4.618
- rel CD ([3]; 75.5 °C): 0.07706
- raw CD ([3]; 76 °C): -4.509
- rel CD ([3]; 76 °C): 0.07187
- raw CD ([3]; 77 °C): -4.747
- rel CD ([3]; 77 °C): 0.0832
- raw CD ([3]; 77.5 °C): -4.466
- rel CD ([3]; 77.5 °C): 0.06981
- raw CD ([3]; 78 °C): -4.843
- rel CD ([3]; 78 °C): 0.08778
- raw CD ([3]; 78.5 °C): -4.206
- rel CD ([3]; 78.5 °C): 0.05742
- raw CD ([3]; 79 °C): -3.995
- rel CD ([3]; 79 °C): 0.0474
- raw CD ([3]; 79.5 °C): -4.497
- rel CD ([3]; 79.5 °C): 0.07129
- raw CD ([3]; 80 °C): -4.058
- rel CD ([3]; 80 °C): 0.05036
- raw CD ([3]; 81 °C): -4.059
- rel CD ([3]; 81 °C): 0.05042
- raw CD ([3]; 82 °C): -4.217
- rel CD ([3]; 82 °C): 0.05795
- raw CD ([3]; 82.5 °C): -4.026
- rel CD ([3]; 82.5 °C): 0.04886
- raw CD ([3]; 83 °C): -4.494
- rel CD ([3]; 83 °C): 0.07116
- raw CD ([3]; 83.5 °C): -4.549
- rel CD ([3]; 83.5 °C): 0.07377
- raw CD ([3]; 84 °C): -4.1838
- rel CD ([3]; 84 °C): 0.05637
- raw CD ([3]; 85 °C): -3.693
- rel CD ([3]; 85 °C): 0.03299
- raw CD ([3]; 86 °C): -3.539
- rel CD ([3]; 86 °C): 0.02569
- raw CD ([3]; 87 °C): -3.736
- rel CD ([3]; 87 °C): 0.03505
- raw CD ([3]; 87.5 °C): -3.636
- rel CD ([3]; 87.5 °C): 0.03029
- raw CD ([3]; 88 °C): -3.641
- rel CD ([3]; 88 °C): 0.03053
- raw CD ([3]; 88.5 °C): -3.975
- rel CD ([3]; 88.5 °C): 0.04642
- raw CD ([3]; 89 °C): -3.567
- rel CD ([3]; 89 °C): 0.02702
- raw CD ([3]; 90 °C): -3.821
- rel CD ([3]; 90 °C): 0.03908
- raw CD ([3]; 90.5 °C): -3.627
- rel CD ([3]; 90.5 °C): 0.02984
- raw CD ([3]; 91 °C): -4.011
- rel CD ([3]; 91 °C): 0.04814
- raw CD ([3]; 91.5 °C): -3.609
- rel CD ([3]; 91.5 °C): 0.02901
- raw CD ([3]; 92 °C): -3.4371
- rel CD ([3]; 92 °C): 0.02081
- raw CD ([3]; 93 °C): -3.657
- rel CD ([3]; 93 °C): 0.03128
- raw CD ([3]; 94 °C): -3.717
- rel CD ([3]; 94 °C): 0.03414
- raw CD ([3]; 95 °C): -3.854
- rel CD ([3]; 95 °C): 0.04065
- raw CD ([3]; 96 °C): -3.335
- rel CD ([3]; 96 °C): 0.01596
- raw CD ([3]; 97 °C): -3.649
- rel CD ([3]; 97 °C): 0.0309
- raw CD ([3]; 98 °C): -3.661
- rel CD ([3]; 98 °C): 0.03146
- raw CD ([3]; 99 °C): -3.437
- rel CD ([3]; 99 °C): 0.0208
- raw CD ([3]; 100 °C): -3.04
- rel CD ([3]; 100 °C): 0.001918
- Melting point ([3]; OEP21 with 0.5 mM metabolite, CD at 215 nm, Apo 58.5): 59.2 ｡C
- Melting point ([3]; OEP21 with 1 mM GAP): 60.2 ｡C
- effect on enhanced oligomerization of Cys109-oxidized OEP21 (in words) [4]: reduced this process

— article PMC10279527, “Structural basis of metabolite transport by the chloroplast outer envelope channel OEP21” (Nature Structural & Molecular Biology, 2023)
